PMC12402836, “Taste Profile and Relative Bioavailability of Tovorafenib Powder for Oral Suspension and Food Effect of the Tovorafenib Tablet in Healthy Participants” (Clinical Pharmacology in Drug Development, 2025)
Like-named read-outs stand apart in the source and are kept apart here.

Legend:
[1] = Relative bioavailability and food-effect pharmacokinetics (Part 2, 3-period crossover); type: in vivo, human
Experimental: In Part 2 of the study, 12 participants were randomized to 1 of 3 sequences (T[fast]S[fast]T[fed], S[fast]T[fed]T[fast], and T[fed]T[fast]S[fast]) (Figure S1B). In each treatment period, tovorafenib was administered on Day 1 as a tablet under fasted (T[fast]), as PfOS under fasted (S[fast]), or as a tablet after a high‐fat meal (T[fed]). Tovorafenib was administered in the morning after an overnight fast of 10 hours or more. For treatment groups T[fast] and S[fast], tovorafenib was given under fasted conditions (ie, no breakfast), while for the T[fed] group, it was administered 30 minutes after the start of a high‐fat meal. A total of 240 mL of water was administered with each tovorafenib tablet. For the PfOS, immediately after administration, the dosing vessel was rinsed with water, and participants were required to consume the rinse solution and additional water up to a total volume of 240 mL (including the dosing volume and volume used to rinse the dosing vessel). If needed, additional water in 50‐mL aliquots was provided and recorded but was not classed as a protocol deviation. Participants were required to fast for 4 hours or more after single‐dose administration of the tovorafenib tablet. The composition of the high‐fat meal consisted of 800‐1000 calories, of which approximately 54% of calories were from fat. To be eligible for dosing, participants were required to consume at least 90% of the meal provided. Intake of fluids was prohibited 1 hour before dosing until 1 hour after dosing, except for fluid consumed with breakfast before dosing and water for tovorafenib tablet intake. Blood samples were collected at regular intervals (see Blood Collection and Processing for PK Analysis in the Pharmacokinetic Assessments section for more details) for PK analysis from before dosing to 120 hours after dosing. […]
Plasma concentrations of tovorafenib were determined by a validated liquid chromatography with tandem mass spectrometry–based method with a lower limit of quantification of 0.5 ng/mL. […]

[2] = tested on: CYP2C8, CYP2C9, CYP2C19, CYP3A, CYP1A2, CYP2B6; parameters: method as in PMID 38967715, PMID 39412085; conditions: at clinically relevant concentrations, cited from earlier work
[3] = parameters: method as in PMID 38967715, PMID 39412085; conditions: cited from earlier work
[4] = tested on: aldehyde oxidase and cytochrome P450 (CYP) 2C8, CYP3A, CYP2C9, CYP2C19; parameters: method as in PMID 38967715, PMID 39412085; conditions: in vitro, minor contributions from CYP3A; cited from earlier work
[5] = tested on: relapsed/refractory pLGG; parameters: method as in PMID 39808502, PMID 37978284; conditions: cited from earlier work
[6] = tested on: breast cancer resistance protein; parameters: method as in PMID 38967715, PMID 39412085; conditions: at clinically relevant concentrations; cited from earlier work
[7] = parameters: method as in PMID 37219686; conditions: cited from earlier work
[8] = Safety assessments (adverse events, laboratory, vital signs, ECG); type: in vivo
Source text: Safety evaluations included analysis of AEs, laboratory variables (hematology, clinical chemistry, and urinalysis), vital signs, electrocardiogram, and a physical examination. AEs were coded using the Medical Dictionary for Regulatory Activities Version 24.0. […] Treatment‐emergent AEs (TEAEs) were summarized by frequency, severity, and relatedness to the study drug. TEAE frequency (the number of TEAEs and the number of participants experiencing a TEAE) was tabulated by system organ class and preferred term. In the per‐participant analyses, a participant having the same event more than once was counted only once.

[9] = 20-280 mg every 2 days and 400-800 mg every week

C[C@@H](NC(=O)c1ncnc(N)c1Cl)c1ncc(C(=O)Nc2cc(C(F)(F)F)c(Cl)cn2)s1 [tovorafenib, 6‐amino‐5‐chloro‐N‐[(1R)‐1‐[5‐[[[5chloro‐4‐(trifluoromethyl)‐2‐pyridinyl]amino]carbonyl]‐2‐thiazolyl]ethyl]‐4‐pyrimidinecarboxamide]
half-life ([1]; human, plasma, oral, range over regimens, 100 and 300 mg, read-out: Mean t1/2 values from the 3 treatment regimens): 62 to 89.5 h
AUC0‐last at 300 mg relative to 100 mg ([1]; single doses): ~2.5 fold
Cmax at 300 mg relative to 100 mg ([1]; single doses): approximately 2.3 fold
Effect on CYP1A2 and CYP2B6 [2]: induces
Effect on CYP2C8, CYP2C9, CYP2C19, and CYP3A ([2]; in vitro): both inhibits and induces
Tovorafenib share of total plasma radioactivity exposure ([3]; single 100-mg oral dose of [14C]-tovorafenib): 78.7%
Dose recovered in the urine ([3]; single oral radiolabeled dose): 27%
Dose recovered unchanged in the feces ([3]; single oral radiolabeled dose): 8.6%
Dose recovered unchanged in the urine ([3]; single oral radiolabeled dose): 0.2%
Total radiolabeled dose recovered in the feces ([3]; single oral radiolabeled dose): 65%
Metabolizing enzymes [4]: primarily metabolized by aldehyde oxidase and cytochrome P450 (CYP) 2C8
Overall response rate ([5]; 76 evaluable patients, 420 mg/m^2 once weekly (600 mg maximum), independent radiology review, RAPNO low-grade glioma criteria): 51%
Median duration of response ([5]; FIREFLY-1 arm 1, 420 mg/m^2 once weekly): 13.8 months
Effect on breast cancer resistance protein [6]: inhibits
Dose proportionality of peak plasma concentration and exposure [7, 9]: roughly dose‐proportional
half-life [7, 9]: approximately 70 hours
Median tmax ([7]; after dosing): 3 h
Mean t1/2 ([7]; patients, 600 mg, multiple administrations): approximately 70 hours
Severity of all AEs ([8]; 100 mg dose regimens): mild
Myalgia, events ([8]; 300 mg): 10 events
Nonserious musculoskeletal AEs, mild ([8]; 300 mg): 5 participants
Nonserious musculoskeletal AEs, moderate ([8]; 300 mg): 3 participants
Nonserious musculoskeletal AEs, severe ([8]; 300 mg): 4 participants
Moderate AEs ([8]; 300 mg dose regimens): 7
Participants with nonserious musculoskeletal AEs ([8]; 300 mg, Period 1): 12 participants
Myalgia, participants reporting ([8]; 300 mg, [83.3%]): 10 participants
TEAEs reported during Part 1 ([8]; Part 1, sip and spit of PfOS formulations, n = 12): no TEAEs
Serious AEs or AEs leading to study drug discontinuation ([8]; Part 2): no serious AEs or AEs leading to study drug discontinuation
TEAEs related to tovorafenib ([8]; Part 2, all regimens): 60
Total TEAEs ([8]; Part 2, all regimens): 71
Participants reporting TEAEs ([8]; Part 2, all regimens, N = 12): 12 participants
Laboratory, vital sign, electrocardiogram, physical examination findings ([8]; either part of the study): no clinically significant abnormal
